Reference: ChEMBL document CHEMBL1201862, “PubChem BioAssay data set” (2004)
The source made the active and inactive calls.

What was measured:
[1] = target: T1, Mannose-6-phosphate isomerase (Homo sapiens, UniProt P34949); experiment: human PMI inhibitors, high substrate, primary screen, biochemical, fluorescence intensity, high mannose 6-phosphate (AID 1220)
T1 sequence (P34949 whole entry): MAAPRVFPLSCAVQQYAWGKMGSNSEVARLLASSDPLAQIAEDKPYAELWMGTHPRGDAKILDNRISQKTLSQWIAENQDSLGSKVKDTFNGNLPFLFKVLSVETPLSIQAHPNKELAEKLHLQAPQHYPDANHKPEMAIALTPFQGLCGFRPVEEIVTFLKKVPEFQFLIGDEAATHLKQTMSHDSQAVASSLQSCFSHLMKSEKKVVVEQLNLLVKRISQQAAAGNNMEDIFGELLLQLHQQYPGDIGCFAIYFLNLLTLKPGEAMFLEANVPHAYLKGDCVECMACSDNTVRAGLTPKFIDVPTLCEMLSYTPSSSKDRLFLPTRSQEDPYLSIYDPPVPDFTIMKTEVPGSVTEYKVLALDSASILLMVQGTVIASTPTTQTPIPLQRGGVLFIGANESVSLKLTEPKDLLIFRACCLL

[2] = target: T2, Heat shock factor protein 1 (Mus musculus, UniProt P38532); experiment: HSF1 potentiators in luciferase reporter cells, confirmation, cell-based, NIH3T3, luminescence, dose retest (AID 435004); assay type: functional;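 also: stress induced by proteasome inhibitor MG132 added 30 min after compound; luciferase reporter driven by HSF1 response element in NIH3T3 cells; actives raise luminescence as potentiators of the MG132 stress response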
T2 sequence (P38532 whole entry): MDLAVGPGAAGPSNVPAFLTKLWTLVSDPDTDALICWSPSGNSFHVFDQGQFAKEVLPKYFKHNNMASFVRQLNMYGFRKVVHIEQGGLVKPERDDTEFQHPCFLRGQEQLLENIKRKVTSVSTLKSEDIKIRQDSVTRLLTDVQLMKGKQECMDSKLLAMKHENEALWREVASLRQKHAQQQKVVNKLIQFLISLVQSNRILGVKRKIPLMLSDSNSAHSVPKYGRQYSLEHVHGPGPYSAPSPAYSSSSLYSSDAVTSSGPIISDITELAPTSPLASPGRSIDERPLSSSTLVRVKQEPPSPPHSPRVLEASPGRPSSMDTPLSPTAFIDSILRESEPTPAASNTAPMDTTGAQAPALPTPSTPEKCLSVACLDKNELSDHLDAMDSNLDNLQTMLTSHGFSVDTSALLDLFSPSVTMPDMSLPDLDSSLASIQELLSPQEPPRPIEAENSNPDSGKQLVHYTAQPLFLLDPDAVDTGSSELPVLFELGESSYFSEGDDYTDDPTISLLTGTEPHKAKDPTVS

[3] = target: T3, Protein RecA (Mycobacterium tuberculosis, UniProt P9WHJ3); experiment: Fluorescence Cell-Free Homogeneous Dose Retest to Identify Inhibitors of RecA-Intein Splicing Activity. [Related pubchem assays (depositor defined):AID2097, AID2223, AID489010, AID492950]; assay type: functional
T3 sequence (P9WHJ3 whole entry): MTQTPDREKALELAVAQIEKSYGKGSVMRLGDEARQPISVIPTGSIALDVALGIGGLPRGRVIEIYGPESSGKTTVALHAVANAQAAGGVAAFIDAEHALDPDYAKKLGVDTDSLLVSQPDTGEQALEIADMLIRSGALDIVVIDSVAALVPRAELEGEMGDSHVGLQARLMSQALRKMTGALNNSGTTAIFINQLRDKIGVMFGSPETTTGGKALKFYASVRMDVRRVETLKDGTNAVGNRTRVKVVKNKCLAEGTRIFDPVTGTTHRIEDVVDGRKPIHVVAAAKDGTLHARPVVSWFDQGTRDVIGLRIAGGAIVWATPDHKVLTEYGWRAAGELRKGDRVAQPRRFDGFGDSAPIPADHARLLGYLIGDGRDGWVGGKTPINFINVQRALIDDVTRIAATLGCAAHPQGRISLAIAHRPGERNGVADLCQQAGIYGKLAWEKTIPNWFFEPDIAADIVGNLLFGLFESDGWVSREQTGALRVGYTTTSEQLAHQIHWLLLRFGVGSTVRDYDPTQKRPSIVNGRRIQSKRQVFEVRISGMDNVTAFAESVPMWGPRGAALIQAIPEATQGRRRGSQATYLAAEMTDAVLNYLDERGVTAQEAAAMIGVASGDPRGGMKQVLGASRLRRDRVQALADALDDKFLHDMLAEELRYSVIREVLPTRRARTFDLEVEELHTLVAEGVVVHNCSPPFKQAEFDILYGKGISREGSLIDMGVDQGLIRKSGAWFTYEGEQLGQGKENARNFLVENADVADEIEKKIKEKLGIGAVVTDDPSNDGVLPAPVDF

[4] = target: T4, Adenosylmethionine-8-amino-7-oxononanoate aminotransferase (Mycobacterium tuberculosis, UniProt P9WQ81); experiment: Mycobacterium tuberculosis BioA enzyme inhibitor Measured in Biochemical System Using Plate Reader - 2163-02_Inhibitor_Dose_CherryPick_Activity.; assay type: functional, Mycobacterium tuberculosis UT205
T4 sequence (P9WQ81 whole entry): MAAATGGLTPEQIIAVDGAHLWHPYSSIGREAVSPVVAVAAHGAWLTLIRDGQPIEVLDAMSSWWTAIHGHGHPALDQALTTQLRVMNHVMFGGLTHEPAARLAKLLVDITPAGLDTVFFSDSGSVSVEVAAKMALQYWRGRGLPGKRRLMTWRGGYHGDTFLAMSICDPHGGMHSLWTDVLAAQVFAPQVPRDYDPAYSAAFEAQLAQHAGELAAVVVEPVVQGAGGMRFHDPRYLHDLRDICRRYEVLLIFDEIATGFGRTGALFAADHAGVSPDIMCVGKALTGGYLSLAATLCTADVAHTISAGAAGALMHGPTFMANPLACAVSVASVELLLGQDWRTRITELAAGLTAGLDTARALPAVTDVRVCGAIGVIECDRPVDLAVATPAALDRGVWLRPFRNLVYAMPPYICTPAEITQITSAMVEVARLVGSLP

[5] = target: Peroxisome proliferator-activated receptor gamma/Nuclear receptor coactivator 2 (Homo sapiens, UniProt P37231); assay type: functional;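 also: agonist potency for raising coactivator recruitment to the receptor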
[6] = target: Peroxisome proliferator-activated receptor gamma/Nuclear receptor coactivator 1 (Homo sapiens, UniProt P37231); assay type: functional;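 also: agonist potency as compounds enhance coactivator SRC-1 recruitment to PPARgamma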
[7] = target: Peroxisome proliferator-activated receptor gamma/Nuclear receptor coactivator 3 (Homo sapiens, UniProt P37231); assay type: functional;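 also: agonist potency for raising coactivator recruitment to the receptor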
Peroxisome proliferator-activated receptor gamma/Nuclear receptor coactivator 3, sequence (P37231 whole entry): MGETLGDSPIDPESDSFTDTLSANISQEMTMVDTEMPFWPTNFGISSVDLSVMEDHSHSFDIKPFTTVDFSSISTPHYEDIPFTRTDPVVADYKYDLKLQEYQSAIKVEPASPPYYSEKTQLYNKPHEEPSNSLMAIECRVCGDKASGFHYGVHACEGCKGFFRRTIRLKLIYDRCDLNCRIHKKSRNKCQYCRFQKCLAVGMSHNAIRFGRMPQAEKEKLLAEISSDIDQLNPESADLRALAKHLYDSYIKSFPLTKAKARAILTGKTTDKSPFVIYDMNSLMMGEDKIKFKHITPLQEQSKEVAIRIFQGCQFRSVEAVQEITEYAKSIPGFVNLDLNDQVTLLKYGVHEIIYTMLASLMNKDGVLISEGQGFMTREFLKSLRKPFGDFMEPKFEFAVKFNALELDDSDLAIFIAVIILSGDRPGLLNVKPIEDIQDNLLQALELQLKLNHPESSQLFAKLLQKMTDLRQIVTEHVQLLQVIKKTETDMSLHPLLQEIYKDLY
Peroxisome proliferator-activated receptor gamma/Nuclear receptor coactivator 3, sequence (Q9Y6Q9 whole entry, further chain): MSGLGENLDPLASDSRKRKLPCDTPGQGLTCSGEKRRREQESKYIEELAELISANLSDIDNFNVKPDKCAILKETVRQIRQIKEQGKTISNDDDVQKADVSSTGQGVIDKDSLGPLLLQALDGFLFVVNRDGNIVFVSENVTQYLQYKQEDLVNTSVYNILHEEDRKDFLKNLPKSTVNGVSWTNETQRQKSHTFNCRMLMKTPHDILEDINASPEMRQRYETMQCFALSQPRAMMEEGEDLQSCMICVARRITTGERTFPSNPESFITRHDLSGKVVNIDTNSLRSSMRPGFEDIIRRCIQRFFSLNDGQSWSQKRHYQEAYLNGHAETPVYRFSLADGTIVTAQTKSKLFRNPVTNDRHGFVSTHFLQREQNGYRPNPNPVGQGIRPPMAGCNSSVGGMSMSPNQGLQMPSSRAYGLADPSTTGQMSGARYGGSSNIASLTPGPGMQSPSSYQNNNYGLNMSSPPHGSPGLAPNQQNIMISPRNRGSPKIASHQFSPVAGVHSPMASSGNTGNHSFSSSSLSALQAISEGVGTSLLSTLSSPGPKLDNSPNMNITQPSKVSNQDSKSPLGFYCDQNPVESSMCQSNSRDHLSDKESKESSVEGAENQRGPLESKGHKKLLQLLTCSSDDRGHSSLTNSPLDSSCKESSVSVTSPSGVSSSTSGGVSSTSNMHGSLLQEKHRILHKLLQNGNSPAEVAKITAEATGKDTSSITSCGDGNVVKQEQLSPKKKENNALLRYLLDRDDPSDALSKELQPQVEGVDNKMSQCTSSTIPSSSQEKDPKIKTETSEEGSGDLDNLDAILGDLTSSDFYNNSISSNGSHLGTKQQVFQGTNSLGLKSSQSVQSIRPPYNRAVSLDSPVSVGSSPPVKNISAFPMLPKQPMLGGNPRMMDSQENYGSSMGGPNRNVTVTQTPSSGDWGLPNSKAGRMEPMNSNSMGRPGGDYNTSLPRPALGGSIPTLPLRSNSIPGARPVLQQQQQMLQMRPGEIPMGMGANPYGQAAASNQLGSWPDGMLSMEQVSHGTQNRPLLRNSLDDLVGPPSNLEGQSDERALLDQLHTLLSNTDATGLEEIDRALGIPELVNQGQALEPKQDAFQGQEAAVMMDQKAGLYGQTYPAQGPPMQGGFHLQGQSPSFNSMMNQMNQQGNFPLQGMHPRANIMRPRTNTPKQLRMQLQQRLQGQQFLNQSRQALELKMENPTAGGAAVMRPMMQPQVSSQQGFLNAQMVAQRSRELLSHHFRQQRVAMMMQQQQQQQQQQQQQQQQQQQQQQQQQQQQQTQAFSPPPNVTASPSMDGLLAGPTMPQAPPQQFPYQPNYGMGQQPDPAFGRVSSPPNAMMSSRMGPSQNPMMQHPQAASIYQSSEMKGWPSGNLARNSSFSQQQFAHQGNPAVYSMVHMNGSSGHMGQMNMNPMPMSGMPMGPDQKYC

[8] = target: Induced myeloid leukemia cell differentiation protein Mcl-1 (Homo sapiens, UniProt Q07820); assay type: functional
Induced myeloid leukemia cell differentiation protein Mcl-1, sequence (Q07820 whole entry): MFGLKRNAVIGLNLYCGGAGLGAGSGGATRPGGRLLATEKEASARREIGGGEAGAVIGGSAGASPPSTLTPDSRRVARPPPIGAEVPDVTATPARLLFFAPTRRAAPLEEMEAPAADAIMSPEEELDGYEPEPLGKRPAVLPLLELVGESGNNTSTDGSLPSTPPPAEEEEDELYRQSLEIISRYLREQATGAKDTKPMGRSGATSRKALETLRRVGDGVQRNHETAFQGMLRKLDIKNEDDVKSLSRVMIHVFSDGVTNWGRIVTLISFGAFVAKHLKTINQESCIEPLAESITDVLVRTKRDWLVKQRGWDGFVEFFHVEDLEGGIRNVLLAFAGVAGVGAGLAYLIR

[9] = A549 cell cytotoxicity, dose response, cytotoxicity control, plate reader, cherry-pick, antagonist series (AID 743412); assay type: functional, cell-based
[10] = LGR2 antagonists, dose response, cell-based, HEK293, CRE-luciferase reporter, cherry pick, set 2 (AID 743343); assay type: functional;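 also: transfected cells were stimulated with diluted bursicon conditioned medium after compound addition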
[11] = MC4R antagonists, dose response, counter-screen for LGR2 antagonist project, cell-based, plate reader, cherry pick (AID 743444); assay type: functional;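 also: transfected HEK 293 cells stimulated with alpha-MSH peptide; potency of inhibitors of the alpha-MSH evoked signal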
[12] = cytotoxicity in HEK-293T cells, dose response, cytotoxicity control for TCR NF-kB inhibitor project, luminescence, T-cell screen hits (AID 489026); assay type: functional, cell-based;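 also: cells exposed to compound about 14 hours before the viability readout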
[13] = Shn3 3'UTR reporter inhibitors, dose response, cell-based, Clone20 osteoblasts, firefly luciferase, cherry-picked (AID 624132); assay type: functional;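 also: firefly luciferase luminescence from reporter carrying the Shn3 3'UTR in osteoblasts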
[14] = HepG2 cell cytotoxicity, dose response, cytotoxicity control for Shn3 inhibitor project, CellTiter-Glo, cherry-picked (AID 624134); assay type: functional, cell-based
[15] = control 3'UTR Renilla luciferase suppression, dose response, counter-screen for Shn3 inhibitor project, cell-based, Clone20-Shn3RL, cherry-picked (AID 624133); assay type: functional
[16] = target: Protein Wnt-3a (Mus musculus, UniProt P27467); experiment: Wnt3a-driven reporter signaling inhibition, dose response, selectivity assay for Gli-SUFU antagonist project, Wnt-LIGHT cells, luminescence (AID 651570); assay type: functional; conditions: read-out: IC50_Mean;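 also: Wnt-LIGHT reporter cells stimulated with conditioned medium from Wnt3a-producing cells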
Protein Wnt-3a, sequence (P27467 whole entry): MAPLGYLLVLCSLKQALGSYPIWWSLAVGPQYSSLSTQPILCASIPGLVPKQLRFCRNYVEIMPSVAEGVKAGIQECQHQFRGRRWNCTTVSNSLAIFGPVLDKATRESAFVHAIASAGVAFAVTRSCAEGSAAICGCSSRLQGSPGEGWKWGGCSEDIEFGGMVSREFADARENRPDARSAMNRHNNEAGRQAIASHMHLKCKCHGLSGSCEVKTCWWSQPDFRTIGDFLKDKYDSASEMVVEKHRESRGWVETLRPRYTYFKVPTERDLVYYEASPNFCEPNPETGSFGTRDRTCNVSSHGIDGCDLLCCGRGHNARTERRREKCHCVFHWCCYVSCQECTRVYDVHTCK

[17] = target: Beta-galactosidase (Escherichia coli, UniProt Q8VNN2); experiment: Dose response counterscreen for EBI2 assay utilizing the enzyme, b-galactosidase.; assay type: functional
Beta-galactosidase, sequence (Q8VNN2 whole entry): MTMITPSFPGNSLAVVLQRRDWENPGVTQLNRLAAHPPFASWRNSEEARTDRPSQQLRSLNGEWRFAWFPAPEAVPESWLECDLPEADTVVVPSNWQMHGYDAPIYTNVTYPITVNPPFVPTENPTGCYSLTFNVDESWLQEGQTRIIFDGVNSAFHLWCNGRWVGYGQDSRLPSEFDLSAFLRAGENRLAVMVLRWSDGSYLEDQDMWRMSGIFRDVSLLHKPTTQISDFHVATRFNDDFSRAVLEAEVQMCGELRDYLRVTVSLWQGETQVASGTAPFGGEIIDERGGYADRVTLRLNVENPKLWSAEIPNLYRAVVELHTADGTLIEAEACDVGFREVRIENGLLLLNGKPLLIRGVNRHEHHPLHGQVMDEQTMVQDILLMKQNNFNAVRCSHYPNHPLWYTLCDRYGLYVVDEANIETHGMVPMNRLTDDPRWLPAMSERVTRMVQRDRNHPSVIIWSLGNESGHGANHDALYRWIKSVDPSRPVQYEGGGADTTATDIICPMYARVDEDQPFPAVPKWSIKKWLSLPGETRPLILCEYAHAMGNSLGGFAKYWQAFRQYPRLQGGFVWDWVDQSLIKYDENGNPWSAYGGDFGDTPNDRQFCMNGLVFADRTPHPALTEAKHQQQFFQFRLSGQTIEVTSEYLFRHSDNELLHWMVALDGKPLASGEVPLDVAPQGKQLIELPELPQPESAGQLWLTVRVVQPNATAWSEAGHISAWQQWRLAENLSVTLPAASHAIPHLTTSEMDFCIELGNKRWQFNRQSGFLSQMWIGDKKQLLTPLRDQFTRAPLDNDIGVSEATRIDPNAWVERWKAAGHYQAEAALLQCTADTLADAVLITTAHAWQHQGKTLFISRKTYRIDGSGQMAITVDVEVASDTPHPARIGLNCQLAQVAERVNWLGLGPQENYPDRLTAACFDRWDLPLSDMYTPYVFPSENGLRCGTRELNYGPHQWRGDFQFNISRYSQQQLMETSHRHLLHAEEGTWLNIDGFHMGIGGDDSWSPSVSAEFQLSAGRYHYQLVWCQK

For `CCCCn1c(NC(=O)c2ccco2)c(S(=O)(=O)c2ccc(C)cc2)c2nc3ccccc3nc21`, the IC50 [1] was > 50 µM (not active), the EC50 [2] was 152 µM (active) and the EC50 [3] was > 380 µM (inactive).

In the case of `COc1ccc(CCNC(=O)c2cnc3n(c2=O)CCS3)cc1OC`, the AC50 [4] is reported as 13.7 µM (active).

For `CN(CP(=O)(O)CN(C)S(C)(=O)=O)S(C)(=O)=O`, the EC50 [5] was > 79.4 µM (not active), the EC50 [6] was > 79.4 µM (not active) and the EC50 [7] was > 79.4 µM (not active).

For `CSc1nc(N(C)CCO)c2sc3nc(-c4ccco4)c4c(c3c2n1)CCC4`, the IC50 [8] was 5.59 µM (active).

In the case of `COc1cc(-c2nc3ccccc3nc2-c2ccc(O)c(OC)c2)ccc1O`, the AC50 [4] is reported as 3.99 µM (active).

For `CCOc1ccc(NC(S)=Nc2cccc3cnccc23)cc1`, the IC50 [1] was > 50 µM (not active).

With `CCCCc1ccc(NC(=O)c2cnccn2)cc1` the AC50 [9] was > 52 µM (inactive), the AC50 [10] was 12.4 µM (active) and the AC50 [11] was 9.42 µM (active).

With `CCCCc1ccc(NC(=O)C(=O)NCCN2CCN(Cc3ccc([N+](=O)[O-])cc3)CC2)cc1` the IC50 [12] was > 80 µM (inactive), the AC50 [13] was 1.13 µM (active) and the AC50 [14] was 64.2 µM (active). For the same compound, the AC50 [15] was 4.92 µM (active) and the IC50 [16] was 1.8 µM (active).

For `CCN(CC)c1ccc(NC(=S)Nc2ccc(F)cc2)cc1`, the IC50 [1] was > 50 µM (not active).

With `O=[N+]([O-])c1ccc(NN=Cc2cc(Br)ccc2O)nc1` the IC50 [17] was 39.2 µM (active).
